Results taken from patent US11913003B2, “Method for improving soybean transformation efficiency” (BEIJING DABEINONG BIOTECHNOLOGY CO., LTD., priority 2017, dated 2024).

Tested on: soybean meristem blocks
Assay: Agrobacterium-mediated soybean transformation (SULE selective marker) with screening by external (dropwise) application of tribenuron methyl; positive plants verified by TaqMan
Format: cell-based, Glycine max
Method: Screening of soybean meristem block: After the recovery period, the meristem block was transferred to 60 ml of a proliferation medium without a selective agent (tribenuron methyl) (B5 salt 3.1 g/L, B5 vitamin, MES 1 g/L, sucrose 30 g/L, 6-BAP 1 mg/L, agar 8 g/L, cephalosporin 150 mg/L, glutamic acid 100 mg/L, aspartic acid 100 mg/L, pH 5.6), so that the soybean meristem block grew rapidly, and the screening and culturing was carried out for 5-9 days, preferably 7 days, under the conditions of a temperature of 24° C. and a photoperiod (light/dark) of 16:8. After the above soybean meristem block was proliferated for 5-9 days, tribenuron methyl herbicide (95% tribenuron methyl wettable powder) was externally applied in concentration of 1, 3, 5 and 7 μg to per ml of the proliferation medium, respectively, in which the diluted tribenuron methyl herbicide solution was added to the proliferation medium to cause selective growth of the transformed cells, and the screening and culturing was carried out at a temperature of 24° C. and a photoperiod (light/dark) of 16:8 for 2 weeks.
Regeneration of plant from resistant soybean tissue block: The resistant tissue blocks after the above screening treatment with four concentrations of tribenuron methyl were separately taken out from the proliferation medium containing tribenuron methyl, the dead tissues and cotyledons attached thereto were removed, the resistant tissue blocks were transferred to (obliquely inserted into) a B5 differentiation medium without selective agent (tribenuron methyl) (B5 salt 3.1 g/L, B5 vitamin, MES 1 g/L, sucrose 30 g/L, ZT 1 mg/L, agar 8 g/L, cephalosporin 150 mg/L, glutamic acid 50 mg/L, aspartic acid 50 mg/L, gibberellin 1 mg/L, auxin 1 mg/L, pH 5.6), and cultured for differentiation at a temperature of 24° C. and a photoperiod (light/dark) of 16:8 for 14-20 days, preferably 18 days. After the differentiation and growth of the above screened four resistant soybean tissue blocks for 14-20 days, […] of tribenuron methyl herbicide (95% tribenuron methyl wettable powder) was externally applied to per ml of the B5 differentiation medium, in which the diluted solution of tribenuron methyl herbicide was added dropwise to the B5 differentiation medium by a pipette, and the screening and culturing was continued at a temperature of 24° C. and a photoperiod (light/dark) of 16:8 until the resistant tissue blocks (transformed cells) regenerated into plants or the regenerated plants could survive.
In the present example, in the screening step of the above soybean meristem blocks and the plant regenerating step of the resistant soybean tissue blocks, the tribenuron methyl herbicide (95% tribenuron methyl wettable powder) was applied to per ml of the proliferation medium or the B5 differentiation medium, and the concentration examples of the diluted tribenuron methyl herbicide solution added dropwise to the proliferation medium or the B5 differentiation medium were shown in Table 1. The proliferated soybean meristem blocks were screened for tolerance to tribenuron methyl herbicide, and the specific information of the 12 treatments was shown in Table 2, and the screening results for each treatment were shown in Table 3, in which each treatment was repeated for 3 times.
The seedlings differentiated from the above 12 treatments were transferred to a B5 rooting medium (B5 salt 3.1 g/L, B5 vitamin, MES 1 g/L, sucrose 30 g/L, agar 8 g/L, cephalosporin 150 mg/L, indole-3-butyric acid (IBA) 1 mg/L, pH 5.6), cultured at 25° C. to a height of about 10 cm, and moved to a greenhouse to grow until fructification. The transgenic plants could be obtained by culturing at 26° C. for 16 hours and then at 20° C. for 8 hours per day in a greenhouse. […]

[1] = Treatment 1: 1 μg/ml proliferation medium, 3 μg/ml B5 differentiation medium
[2] = Treatment 1: 1 μg/ml proliferation medium, 3 μg/ml B5 differentiation medium, 50 initially germinated soybeans
[3] = Treatment 2: 1 μg/ml proliferation medium, 5 μg/ml B5 differentiation medium
[4] = Treatment 2: 1 μg/ml proliferation medium, 5 μg/ml B5 differentiation medium, 55 initially germinated soybeans
[5] = Treatment 3: 1 μg/ml proliferation medium, 7 μg/ml B5 differentiation medium
[6] = Treatment 3: 1 μg/ml proliferation medium, 7 μg/ml B5 differentiation medium, 75 initially germinated soybeans
[7] = Treatment 4: 3 μg/ml proliferation medium, 3 μg/ml B5 differentiation medium
[8] = Treatment 4: 3 μg/ml proliferation medium, 3 μg/ml B5 differentiation medium, 55 initially germinated soybeans
[9] = Treatment 5: 3 μg/ml proliferation medium, 5 μg/ml B5 differentiation medium
[10] = Treatment 5: 3 μg/ml proliferation medium, 5 μg/ml B5 differentiation medium, 60 initially germinated soybeans
[11] = Treatment 6: 3 μg/ml proliferation medium, 7 μg/ml B5 differentiation medium, 45 initially germinated soybeans
[12] = Treatment 7: 5 μg/ml proliferation medium, 3 μg/ml B5 differentiation medium
[13] = Treatment 7: 5 μg/ml proliferation medium, 3 μg/ml B5 differentiation medium, 50 initially germinated soybeans
[14] = Treatment 8: 5 μg/ml proliferation medium, 5 μg/ml B5 differentiation medium
[15] = Treatment 8: 5 μg/ml proliferation medium, 5 μg/ml B5 differentiation medium, 70 initially germinated soybeans
[16] = Treatment 9: 5 μg/ml proliferation medium, 7 μg/ml B5 differentiation medium
[17] = Treatment 9: 5 μg/ml proliferation medium, 7 μg/ml B5 differentiation medium, 43 initially germinated soybeans
[18] = Treatment 10: 7 μg/ml proliferation medium, 3 μg/ml B5 differentiation medium
[19] = Treatment 10: 7 μg/ml proliferation medium, 3 μg/ml B5 differentiation medium, 80 initially germinated soybeans
[20] = Treatment 11: 7 μg/ml proliferation medium, 5 μg/ml B5 differentiation medium
[21] = Treatment 11: 7 μg/ml proliferation medium, 5 μg/ml B5 differentiation medium, 75 initially germinated soybeans
[22] = Treatment 12: 7 μg/ml proliferation medium, 7 μg/ml B5 differentiation medium
[23] = Treatment 12: 7 μg/ml proliferation medium, 7 μg/ml B5 differentiation medium, 80 initially germinated soybeans

Q: Which results are given for `COC(=O)c1ccccc1S(=O)(=O)NC(=O)N(C)c1nc(C)nc(OC)n1` [tribenuron methyl]?
A: Positive plant rate [1]: 22.2%; Transformation efficiency [1]: 12.0%; Number of positive plants [2]: 6 plant; Number of seedlings [2]: 27 plant; Positive plant rate [3]: 25.0%; Transformation efficiency [3]: 10.9%; Number of positive plants [4]: 6 plant; Number of seedlings [4]: 24 plant; Positive plant rate [5]: 50.0%; Transformation efficiency [5]: 6.7%; Number of positive plants [6]: 5 plant; Number of seedlings [6]: 10 plant; Positive plant rate [7]: 20.0%; Transformation efficiency [7]: 9.1%; Number of positive plants [8]: 5 plant; Number of seedlings [8]: 25 plant; Positive plant rate [9]: 21.4%; Transformation efficiency [9]: 10.0%; Number of positive plants [10]: 6 plant; Number of seedlings [10]: 28 plant; Positive plant rate (Treatment 6: 3 μg/ml proliferation medium, 7 μg/ml B5 differentiation medium): 47.8%; Number of positive plants [11]: 11 plant; Number of seedlings [11]: 23 plant; Positive plant rate [12]: 36.8%; Transformation efficiency [12]: 14.0%; Number of positive plants [13]: 7 plant; Number of seedlings [13]: 19 plant; Positive plant rate [14]: 25.0%; Transformation efficiency [14]: 5.7%; Number of positive plants [15]: 4 plant; Number of seedlings [15]: 16 plant; Positive plant rate [16]: 62.5%; Transformation efficiency [16]: 11.6%; Number of positive plants [17]: 5 plant; Number of seedlings [17]: 8 plant; Positive plant rate [18]: 60.0%; Transformation efficiency [18]: 11.3%; Number of positive plants [19]: 9 plant; Number of seedlings [19]: 15 plant; Positive plant rate [20]: 77.7%; Transformation efficiency [20]: 9.3%; Number of positive plants [21]: 7 plant; Number of seedlings [21]: 9 plant; Positive plant rate [22]: 80.0%; Transformation efficiency [22]: 5.0%; Number of positive plants [23]: 4 plant; Number of seedlings [23]: 5 plant
